In patent US11911387B2, “Vasoprotective and cardioprotective antidiabetic therapy” (Boehringer Ingelheim International GmbH, priority 2010, dated 2024):

Assays:
[1] = test system: isolated aortic ring segments; experiment: Direct vasodilatory effects, isometric tension recording in isolated aortic ring segments; parameters: species or system rats; conditions: cumulative concentrations 1 nM to 32 or 100 μM; versus DMSO
Experimental: FIGS. 9A and 9B show direct vasodilatory effects of gliptins. […] The data are mean±SEM of 12 (FIG. 9A) or 4 (FIG. 9B) aortic rings from 10 rats in total: p<0.05 vs. DMSO (solvent control); ^#p<0.05 vs. sita-/vildagliptin, and ^§, p<0.05 vs. saxa-/alogliptin.
Direct vasodilatory effects of gliptins are measured by the isometric tension technique in isolated aortic ring segments. […] In addition reactive oxygen and nitrogen species (RONS) formation is determined in isolated cardiac mitochondria and LPS or PDBu-triggered oxidative burst in whole blood.

[2] = test system: T2DM patients on stable metformin
Description: Efficacy analyses are based on HbA1c change from baseline in the full analysis set (FAS) and per-protocol (PP) population. Safety evaluations includ pre-specified, prospective, and adjudicated capture of cardiovascular (CV) events (CV death, non-fatal myocardial infarction or stroke, unstable angina with hospitalization).

2K1C-rats = experiment: Two-kidney-one clip reno-vascular hypertension (2K1C) rat model, systolic blood pressure; type: in vivo; conditions: 3 months; telmisartan 10 mg/kg, linagliptin 89 ppm in chow
Description: We hypothesize that glucose/energy supply is particularly important in the failing heart that is characterized by cardiac hypertrophy. Inadequate energy supply is considered as one of the most important steps from compensated to decompensated left ventricular hypertrophy resulting in heart failure. A classical model of hypertension induced left ventricular hypertrophy that results on the long run in left ventricular failure and pathological remodeling is the two-kidney-one clip reno-vascular hypertension (Goldblatt) model (2K1C model).
[…]. Non-invasive, systolic blood pressure is measured in all groups to the time points (1. before treatment; 2. after 1 weeks 3. after 4 weeks; 4. after 6 weeks 5. after 12 weeks; and 6. after 6 weeks of treatment with the respective compounds.

[3] = test system: diabetic eNOS knockout C57BL/6J mice; experiment: ARB-resistant diabetic nephropathy in diabetic eNOS knockout C57BL/6J mice, 12 weeks; type: in vivo
Description: Fourteen mice are used as non-diabetic controls. After 12 weeks, urine and blood are obtained and blood pressure measured.

diabetic eNOS ko mice = experiment: Diabetic nephropathy in STZ-diabetic eNOS ko mice, 4 weeks treatment; type: in vivo; conditions: STZ treated animals, linagliptin 3 mg/kg, telmisartan 1 mg/kg p.o.
Description: Endothelial damage is characteristic for type 2 diabetes and contributes to the development of end stage kidney disease. Further, vascular endothelial NO synthase (eNOS) activity is altered in T2D and genetic abnormalities in the respected gene (NOS3) are associated with the development of advanced diabetic nephropathy (DN) in patients with type 1 and type 2 diabetes. The use of low dose STZ to induce T2D in this genetic phenotype (eNOS−/−) has been recently reported (Brosius et al, JASN 2009) to be a valid experimental model for DN. Eight week old eNOS −/− mice are rendered diabetic with intraperitoneal injections of streptozotocin (100 mg/kg per day for two consecutive days). Development of diabetes (defined by blood glucose>250 mg/dl) is verified one week after streptozotocin injection. No insulin is given because that could prevent the development of diabetic nephropathy. Mice are treated for 4 weeks with:
1) Non-diabetic eNOS ko control mice, placebo (natrosol) (n=14)
2) sham treated diabetic eNOS ko mice, placebo (natrosol) (n=17)
3) Telmisartan (p.o. 1 mg/kg) treated diabetic eNOS ko mice (n=17)
Renal function (s-creatinine, albuminuria) and blood glucose level are detected.

[4] = test system: superoxide formation from xanthine oxidase; experiment: Direct antioxidant effect: superoxide formation from xanthine oxidase

Cn1c(=O)cc(N2CCC[C@@H](N)C2)n(Cc2ccccc2C#N)c1=O [alogliptin]
direct vasodilatory effect (induction of vasodilation), ranking [1]: directly followed by alogliptin and vildagliptin

CCC1=C(C)CN(C(=O)NCCc2ccc(S(=O)(=O)NC(=O)N[C@H]3CC[C@H](C)CC3)cc2)C1=O [glimepiride, reference compound]
adjusted mean HbA1c change from baseline ([2]; PP population, 2 years, linagliptin 5 mg/day, glimepiride mean dose 3 mg/day, added to metformin): −0.5% | patients with investigator-defined, drug-related hypoglycemia ([2]; human, in vivo, 2 years): 36.1% | body weight change ([2]; in vivo): +1.3 kg

N[C@@H](CC(=O)N1CCn2c(nnc2C(F)(F)F)C1)Cc1cc(F)c(F)cc1F [sitagliptin]
direct vasodilatory effect (induction of vasodilation), ranking [1]: not more efficient in the induction of vasodilation than the solvent alone control

CCCc1nc2c(C)cc(-c3nc4ccccc4n3C)cc2n1Cc1ccc(-c2ccccc2C(=O)O)cc1 [telmisartan]
systolic blood pressure (RR systolic) (2K1C-rats): always significant versus vehicle treated animals | albuminuria, significance compared with diabetic controls ([3]; 12 weeks): not statistically significant | blood pressure ([3]; 12 weeks, mean±SEM): 111.2±2.3 mmHg | blood pressure reduction vs diabetic controls ([3]; 12 weeks, p=0.071): 5.9 mmHg | albuminuria (urinary albumin excretion per 24 h) ([3]; 12 weeks, telmisartan 1 mg/kg, linagliptin 3 mg/kg): 97.8±26.4 μg/24 h | glomerulosclerosis in the kidney, histological score ([3]; compared with diabetic controls, p<0.05): not significantly different | plasma neutrophil gelatinase-associated lipocalin (NGAL) levels ([3]; compared with untreated diabetic mice): significantly increased | blood sugar versus placebo (diabetic eNOS ko mice): No significant differences

N#C[C@@H]1CCCN1C(=O)CNC12CC3CC(CC(O)(C3)C1)C2 [vildagliptin]
direct vasodilatory effect (induction of vasodilation), ranking [1]: directly followed by alogliptin and vildagliptin | suppression of superoxide formation [4]: Minor (but significant) suppression
